Measured values reported in patent US20260125359A1, “HETEROARYL COMPOUNDS AS MULTI-TARGET PROTEIN KINASE INHIBITORS” (FUJIAN HAIXI PHARMACEUTICALS CO., LTD., priority 2023, published 2026).

tested on: M-NFS-60 cells; experiment: M-NFS-60 cell in vitro assay (CCK, 48 h, M-CSF factor medium); format: cell-based; conditions: M-NFS-60 cells; read-out: M-NFS-60cellassay IC50
Description: To determine the inhibitory activity of compounds on M-NFS-60 cells.
• M-NFS-60 cell line (ATCC, Cat. No.: CRL-1838) • RPMI-1640 medium (Gibco, domestic subpackage, Cat. No.: C11875500BT) • Recombinant Mouse CSF1/M-CSF (Sino Biological Inc., Cat. No.: 51112-MNAH) • PAN/Serum (BioTECH, Cat. No.: P30-2602) • Trypsin/0.05% Trypsin-EDTA (Gibco, Cat. No.: 25300-062) • 0.4% Trypan Blue (Sigma, Cat. No.: T8154-20 ml) • Penicillin-Streptomycin (Hyclone, Cat. No.: SV30010) • DMSO (Solarbio, Cat. No.: D8371) • PBS (Solarbio, Cat. No.: P1020) • CCK (AbMole BioScience, Cat. No.: M4839-500Tests)
• 1) M-CSF factor stock solution: take 10 μg of powdered m-CSF factor, add 0.4 ml of saline, formulate 25 ug/ml and store at −80° C. • 2) M-CSF factor (25 ng/ml) medium: • 1640 (Gibco)+10% PAN+100×Penicillin-Streptomycin+100×M-CSF stock solution • 3) Complete medium: • 1640 (Gibco)+10% PAN+100×Penicillin-Streptomycin • 4) Compound preparation: 2-3 mg of the compound was added to DMSO to formulate a 30 mM stock solution, −80° C. refrigerator storage
• 1) Cell resuscitation: the frozen cells in the cryovial were thawed rapidly by shaking in a 37° C. water bath, then 4 mL of medium was added. After mixing evenly, they were centrifuged at 125×g for 5 min, and the supernatant was discarded. The cells were resuspended and transferred to the culture flasks, and were cultured in a 5% CO2 fully saturated humidity incubator. • 2) Cell passaging: M-NFS-60 cells are semi-suspension cells, which were collected directly in a 15 mL centrifuge tube, centrifuged at 125×g for 5 min. and the supernatant was discarded. The cells were resuspended and passaged into new culture flasks at a ratio of 1:5 to 1:10. • 3) After the newly resuscitated cells were passaged 1-2 times for cell stabilization, compound inhibition assays were started when the cells were in the logarithmic growth phase. • (a) Cell collection and counting: the same as the cell passaging step, centrifuge in two tubes, one tube with M-CSF factor medium to resuspend the cells, the other tube with complete medium to resuspend the cells. Take 10 μL of cell suspension in each tube, and count the cells by Tepan blue staining. • (b) Dilute the cell solution according to the concentration of inoculated cells respectively, the concentration of M-NFS-60 cells inoculated with factor was 5.56×10^4 cells/mL, and the concentration of inoculated without factor was 5×10^4 cells/mL. • (c) Seed plate: 384 well plate inoculated with M-NFS-60 cells, 36 uL/well, triplicate wells, the number of inoculated cells was equivalent to 2000 cells/well, set with blank control, factor free negative control, normal control, DMSO control and experimental wells. The cells were placed in a 5% CO2 fully saturated humidity incubator for 4 h. • (d) Sampling compounds: 96 well plates were used for compound preparation. The compound solution prepared in advance was diluted to corresponding gradient concentration with DMSO. An appropriate amount of the diluted solution in the previous step was added to an equal volume of factor containing medium. The 96 well plates were centrifuged at 1000 rpm for 5 min, which played the role of defoaming and spinning down droplets and condensation. Remove the 384 well plate from the incubator, add the diluted compound solution into each well sequentially, 4 μL/well; DMSO wells and normal wells were added with corresponding factor containing medium, 4 μL/well. Then it was put into CO2 incubator for 48 h. • (e) After incubation for 48 h, CCK was added to each well, 4 uL, and the plates were placed in the incubator for another 2 h, and then the OD (optical density) value at 450 nm was measured by microplate reader.
The IC50 values for each test compound were fitted using professional graphing and analysis software.

Row | SMILES | IC50 [nM]
1 | Cn1cc(-c2cncc(N[C@H]3CCc4c(C(=O)NC5CCCCC5)cccc43)n2)cn1 [Compound 27c] | < 50
2 | CN(C)C(=O)c1cccc2c1CC[C@@H]2Nc1cncc(-c2cnn(C)c2)n1 [Compound 27d] | > 500
3 | CC(C)NC(=O)c1cccc2c1CC[C@@H]2Nc1cncc(-c2cnn(C)c2)n1 [Compound 27e] | 50 to 200
4 | Cn1cc(-c2cncc(N[C@H]3CCc4c(C(=O)NC5CCC(F)(F)CC5)cccc43)n2)cn1 [Compound 27f] | < 50
5 | CN1CCC(NC(=O)c2cccc3c2CC[C@@H]3Nc2cncc(-c3cnn(C)c3)n2)CC1 [Compound 27h] | > 500
6 | Cn1cc(-c2cncc(N[C@H]3CCc4c(C(=O)NN5CC6CCCC6C5)cccc43)n2)cn1 (stereo partly shown) [Compound 27i] | < 50
7 | Cn1cc(-c2cncc(N[C@H]3CCc4c(C(=O)NN5CCCCC5)cccc43)n2)cn1 [Compound 27j] | > 500
8 | Cn1cc(-c2cncc(N[C@H]3CCc4c(C(=O)Nc5cncc(Cl)c5)cccc43)n2)cn1 [Compound 27k] | < 50
9 | Cn1cc(-c2cncc(N[C@H]3CCc4c(C(=O)NC5CCOCC5)cccc43)n2)cn1 [Compound 27l] | > 500
10 | Cn1cc(-c2cncc(N[C@H]3CCc4c(C(=O)NC(C)(C)C(F)(F)F)cccc43)n2)cn1 [Compound 27m] | > 500
11 | Cn1cc(-c2cncc(N[C@H]3CCc4c(C(=O)Nc5ccccc5F)cccc43)n2)cn1 [Compound 27n] | < 50
12 | COc1cc(NC(=O)c2cccc3c2CC[C@@H]3Nc2cncc(-c3cnn(C)c3)n2)ccc1F [Compound 27o] | < 50
13 | Cn1cc(-c2cncc(N[C@H]3CCc4c(NC(=O)c5cccc(CN6CCCCC6)c5)cccc43)c2)cn1 [Compound 28a] | > 500
14 | Cn1cc(-c2cncc(N[C@H]3CCc4c(NC(=O)c5cccc(CN6CCCC6)c5)cccc43)c2)cn1 [Compound 28b] | > 500
15 | COC(=O)Nc1cccc2c1CC[C@@H]2Nc1cncc(-c2cnn(C)c2)n1 [Compound 29, methyl(S)-(1-((6-(1-methyl-1H-pyrazol-4-yl)pyrazin-2-yl)amino)-2,3-dihydro-1H-inden-4-yl) carbamate] | > 500
16 | Cc1cccc(C(=O)Nc2cccc3c2CC[C@@H]3Nc2cncc(Cl)n2)c1 [Compound 30, (S)—N-(1-((6-chloropyrazin-2-yl)amino)-2,3-dihydro-1H-inden-4-yl)-3-methylbenzamide] | < 50
17 | Cc1cccc(C(=O)Nc2cccc3c2CC[C@@H]3Nc2cncc(N3CCN(C)CC3)n2)c1 [Compound 31, (S)-3-methyl-N-(1-((6-(4-methylpiperazin-1-yl)pyrazin-2-yl)amino)-2,3-dihydro-1H-inden-4-yl)benzamide] | 200 to 500
18 | Cc1cccc(C(=O)Nc2cccc3c2CC[C@@H]3Nc2cncc(N(C)CCN(C)C)n2)c1 [Compound 32, (S)—N-(1-((6-((2-(dimethylamino)ethyl)(methyl)amino)pyrazin-2-yl)amino)-2,3-dihydro-1H-inden-4-yl)-3-methylbenzamide] | > 500
19 | Cc1cccc(NC(=O)c2cccc3c2CC[C@@H]3Nc2cncc(Cl)n2)c1 [Compound 33c, (S)-1-((6-chloropyrazin-2-yl)amino)-N-(m-tolyl)-2,3-dihydro-1H-indene-4-carboxamide] | < 50
20 | Cc1cccc(NC(=O)c2cccc3c2CC[C@@H]3Nc2cncc(N3CCN(C)CC3)n2)c1 [Compound 34, (S)-1-((6-(4-methylpiperazin-1-yl)pyrazin-2-yl)amino)-N-(m-tolyl)-2,3-dihydro-1H-indene-4-carboxamide] | 50 to 200
21 | CC(C)c1csc(Nc2cccc3c2CC[C@@H]3Nc2cncc(-c3cnn(C)c3)n2)n1 [Compound 35, (S)—N^4-(4-isopropylthiazol-2-yl)-N^1-(6-(1-methyl-1H-pyrazol-4-yl)pyrazin-2-yl)-2,3-dihydro-1H-indene-1,4-diamine] | 50 to 200

Row | SMILES | IC50 [nM]
22 | Cc1csc(Nc2cccc3c2CC[C@@H]3Nc2cncc(-c3cnn(C)c3)n2)n1 [Compound 36a] | > 500
23 | Cn1cc(-c2cncc(N[C@H]3CCc4c(Nc5nc(C6CC6)cs5)cccc43)n2)cn1 [Compound 36b] | 50 to 200
24 | Cn1cc(-c2cncc(N[C@H]3CCc4c(Nc5nc(C(C)(C)C)cs5)cccc43)n2)cn1 [Compound 36c] | < 50
25 | CC(C)c1cnc(Nc2cccc3c2CC[C@@H]3Nc2cncc(-c3cnn(C)c3)n2)s1 [Compound 37, (S)—N^4-(5-isopropylthiazol-2-yl)-N^1-(6-(1-methyl-1H-pyrazol-4-yl)pyrazin-2-yl)-2,3-dihydro-1H-indene-1,4-diamine] | 50 to 200
26 | Cn1cc(-c2cncc(N[C@H]3CCc4c(Nc5ccn(C(C)(C)C)n5)cccc43)n2)cn1 [Compound 38, (S)—N^4-(1-(tert-butyl)-1H-pyrazol-3-yl)-N^1-(6-(1-methyl-1H-pyrazol-4-yl)pyrazin-2-yl)-2,3-dihydro-1H-indene-1,4-diamine] | 50 to 200
27 | Cn1cc(-c2cncc(N[C@H]3CCc4c(Nc5cnn(C(C)(C)C)c5)cccc43)n2)cn1 [Compound 39a] | > 500
28 | Cc1cncc(Nc2cccc3c2CC[C@@H]3Nc2cncc(-c3cnn(C)c3)n2)c1 [Compound 39b] | > 500
29 | Cc1c(Nc2cccc3c2CC[C@@H]3Nc2cncc(-c3cnn(C)c3)c2)noc1C(C)(C)C [Compound 40, (S)—N^4-(5-(tert-butyl)-4-methylisoxazol-3-yl)-N^1-(5-(1-methyl-1H-pyrazol-4-yl)pyridin-3-yl)-2,3-dihydro-18-indene-1,4-diamine] | < 50
30 | Cc1c(Nc2cccc3c2CC[C@@H]3Nc2cncc(Cl)c2)noc1C(C)(C)C [Compound 40d, (S)—N^4-(5-(ter-butyl)-4-methylisoxazol-3-yl)-N^1-(5-chloropyridin-3-yl)-2,3-dihydro-1H-indene-1,4-diamine] | 50 to 200
31 | CC(C)(C)c1cc(Nc2cccc3c2CC[C@@H]3Nc2cncc(Cl)c2)no1 [Compound 42a] | 50 to 200
32 | CC(C)c1cc(Nc2cccc3c2CC[C@@H]3Nc2cncc(Cl)c2)no1 [Compound 42b] | 50 to 200
33 | CC(C)(CO)c1cc(Nc2cccc3c2CC[C@@H]3Nc2cncc(Cl)c2)no1 [Compound 42c] | < 50
34 | Cn1nc(Nc2cccc3c2CC[C@@H]3Nc2cncc(Cl)c2)cc1C(F)(F)F [Compound 42d] | > 500
35 | CC(C)(C)c1cc(Nc2cccc3c2CC[C@@H]3Nc2cncc(Cl)c2)n[nH]1 [Compound 42e] | > 500
36 | Clc1cncc(N[C@H]2CCc3c(Nc4nc5c(s4)CCCC5)cccc32)c1 [Compound 42f] | > 500
37 | CN1CCc2nc(Nc3cccc4c3CC[C@@H]4Nc3cncc(Cl)c3)sc2C1 [Compound 42g] | > 500
38 | CC(C)(C)c1ccnc(Nc2cccc3c2CC[C@@H]3Nc2cncc(Cl)c2)n1 [Compound 42h] | > 500
39 | CC(C)(C)c1nnc(Nc2cccc3c2CC[C@@H]3Nc2cncc(Cl)c2)s1 [Compound 42i] | 50 to 200
40 | Clc1cncc(N[C@H]2CCc3c(Nc4noc5ccccc45)cccc32)c1 [Compound 42j] | > 500
41 | Cn1cc(-c2cncc(N[C@H]3CCc4c(Nc5nc(C(C)(C)C)no5)cccc43)c2)cn1 [Compound 42k] | 200 to 500
42 | Cn1cc(-c2cncc(N[C@H]3CCc4c(Nc5nnc(C(C)(C)C)o5)cccc43)c2)cn1 [Compound 42l] | > 500

same assay, conditions: read-out: M-NFS-60cellassay IC50(nM)

Row | SMILES | IC50 [nM]
43 | Cc1cccc(NC(=O)c2cccc3c2CC[C@@H]3Nc2cncc(C3=CCN(C)CC3)n2)c1 [Compound 33, (S)-1-((6-(1-methyl-1,2,3,6-tetrahydropyridin-4-yl)pyrazin-2-yl)amino)-N-(m-tolyl)-2,3-dihydro-1H-indene-4-carboxamide] | 50 to 200
